The record followed here is patent publication US20250136559A1, “SMO MODULATOR COMPOUNDS” (OMASS THERAPEUTICS LIMITED, priority 2022, published 2025).

Holding throughout (format): cell-based
For one assay, the target named is T1, mouse SMO^D473H (Mus musculus, UniProt P56726, D477H).
T1 construct: expressed in transfected cells
As to the kind of experiment: Mouse assay: Gli1 qPCR in MEF cells stably expressing mouse SMO D473H. To be noted: mSHh-treated, 24 hours; for IC50: Gli1 inhibition by qPCR, read-out: Mouse D473H pIC50 (converted); for Mouse D473H % Inh: percentage Gli1 inhibition. Here is the method: (§1) Cell culture. All materials were purchased from Sigma-Aldrich, unless otherwise stated.
(§2) Compound treatment. […] After 1 hour incubation, cells were treated with assay medium containing mSHh prepared at 2.5× of final assay concentrations specified in the text and incubated for a further 24 hours at 37′C in a humidified 95% air/5% CO2 atmosphere prior to qPCR analysis.
(§3) Cell lysis and one-step qPCR. The Cells-to-CT™ 1-Step TaqMan® Kit was used in conjunction with TaqMan primer-probe assays for the detection of Gli1 (FAM, Mm00494654_m1) and Gusb (VIC, Mm01197698_m1) genes (all purchased from Life Technologies). Following 24 hours cell treatment, spent medium was removed and cells were washed with PBS before the application of lysis and stop solution as per manufacturer's instructions. The qPCR reactions were run in a 384-well PCR plate using master mix prepared according to manufacturer's instructions and cell lysate samples from treatment wells. Real-time PCR amplification was detected using the Bio-Rad CFX384 Touch PCR system. Four experimental replicates (two cell replicates and two qPCR replicates) were performed for each compound concentration tested. Real-time data were analysed using the CFX Maestro software (Bio-Rad) and obtained expression values were converted to percentage Gli1 inhibition by normalising to the average Gli1 expression of mSHh-treated control samples.
A general note: Quantitative PCR measures a nucleic acid by following its amplification.

The next assay addresses T2, mouse SMO^WT (Mus musculus, UniProt P56726).
T2 construct: expressed in transfected cells
As to the kind of experiment: Mouse assay: Gli1 qPCR in MEF cells stably expressing mouse SMO WT. To be noted: mSHh-treated, 24 hours; for IC50: Gli1 inhibition by qPCR, read-out: Mouse WT pIC50 (converted); for Mouse WT % Inh: percentage Gli1 inhibition. Here is the method: as §1, §2, §3

Another assay concerns the target T3, mouse SMO^W535L (Mus musculus, UniProt P56726, W539L).
T3 construct: expressed in transfected cells
As to the kind of experiment: Mouse assay: Gli1 qPCR in MEF cells stably expressing mouse SMO W535L. To be noted: mSHh-treated, 24 hours; for IC50: Gli1 inhibition by qPCR, read-out: Mouse W535L pIC50 (converted); for Mouse W535L % Inh: percentage Gli1 inhibition. Here is the method: as §1, §2, §3

T2 sequence (P56726 33-793): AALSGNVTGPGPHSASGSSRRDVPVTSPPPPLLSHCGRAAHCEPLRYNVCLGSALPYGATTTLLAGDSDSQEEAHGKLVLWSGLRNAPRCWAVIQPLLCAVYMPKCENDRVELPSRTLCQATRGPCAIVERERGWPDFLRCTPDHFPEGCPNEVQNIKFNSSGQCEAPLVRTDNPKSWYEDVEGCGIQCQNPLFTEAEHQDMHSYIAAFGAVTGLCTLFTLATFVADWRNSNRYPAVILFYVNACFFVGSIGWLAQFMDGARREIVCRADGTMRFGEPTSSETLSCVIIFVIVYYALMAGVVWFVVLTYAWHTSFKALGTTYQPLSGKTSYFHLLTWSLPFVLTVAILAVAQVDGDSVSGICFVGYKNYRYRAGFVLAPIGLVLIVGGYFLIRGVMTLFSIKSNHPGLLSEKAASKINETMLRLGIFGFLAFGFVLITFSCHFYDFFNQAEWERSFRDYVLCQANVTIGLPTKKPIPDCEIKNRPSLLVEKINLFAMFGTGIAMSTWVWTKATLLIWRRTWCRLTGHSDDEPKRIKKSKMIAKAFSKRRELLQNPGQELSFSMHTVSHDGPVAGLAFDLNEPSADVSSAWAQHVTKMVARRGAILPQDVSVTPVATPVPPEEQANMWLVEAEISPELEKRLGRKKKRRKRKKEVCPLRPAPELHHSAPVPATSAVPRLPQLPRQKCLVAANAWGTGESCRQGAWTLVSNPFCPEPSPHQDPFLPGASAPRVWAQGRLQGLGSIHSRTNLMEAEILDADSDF
T1 sequence (P56726 33-793 D477H): as the sequence (P56726 33-793) above, with D445H counted along it
T3 sequence (P56726 33-793 W539L): as the sequence (P56726 33-793) above, with W507L counted along it

With `O=C(Nc1ccc(-c2nc(Cc3cc(Cl)ccc3Cl)n[nH]2)cc1)c1cccc(CN2CCS(=O)(=O)CC2)c1` [Example 3-26, N-[4-[3-[(2,5-Dichlorophenyl)methyl]-1H-1,2,4-triazol-5-yl]phenyl]-3-[(1,1-dioxo-1,4-thiazinan-4-yl)methyl]benzamide], at mouse SMO^D473H, the IC50 is 501 nM and the “Mouse D473H % Inh” value was 87.1%. For the same compound, on mouse SMO^WT, the IC50 is 15.8 nM and the “Mouse WT % Inh” value was found to be 98.3%. Also, at mouse SMO^W535L, the IC50 is 251 nM and the “Mouse W535L % Inh” value stood at 64.8%.

On to `O=C(Nc1ccc(-c2nc(Cc3ccc(Cl)cc3)n[nH]2)cc1)c1cccc(CN2CCS(=O)(=O)CC2)c1` [Example 3-23, N-[4-[3-[(4-Chlorophenyl)methyl]-1H-1,2,4-triazol-5-yl]phenyl]-3-[(1,1-dioxo-1,4-thiazinan-4-yl)methyl]benzamide], for which, at mouse SMO^D473H, the IC50 is 316 nM and the “Mouse D473H % Inh” value is listed as 95.0%. In addition, at mouse SMO^WT, the IC50 is 7.94 nM and the “Mouse WT % Inh” value was found to be 99.5%. In addition, on mouse SMO^W535L, the IC50 was 25.1 nM and the “Mouse W535L % Inh” value was found to be 58.2%.

`Cc1oc(-c2ccc(NC(=O)c3ccc(Cl)c(CN4CCS(=O)(=O)CC4)c3)cn2)nc1C1CC1` [Example 5-2, 4-Chloro-N-[6-(4-cyclopropyl-5-methyl-1,3-oxazol-2-yl)pyridin-3-yl]-3-[(1,1-dioxo-1,4-thiazinan-4-yl)methyl]benzamide]: at mouse SMO^D473H, the IC50 is 7.94 nM and the “Mouse D473H % Inh” value was found to be 98.1%. Besides, on mouse SMO^WT, the IC50 was 2 nM and the “Mouse WT % Inh” value was determined as 98.8%. At mouse SMO^W535L, the IC50 was 63.1 nM and the “Mouse W535L % Inh” value is on record as 82.7%.

Turning to `O=C(Nc1ccc(-c2nc(C3CCN(c4ccccc4)C3)n[nH]2)cc1)c1cccc(CN2CCS(=O)(=O)CC2)c1` (stereo not drawn) [Example 3-8, 3-[(1,1-Dioxo-1,4-thiazinan-4-yl)methyl]-N-[4-[3-(1-phenylpyrrolidin-3-yl)-1H-1,2,4-triazol-5-yl]phenyl]benzamide], at mouse SMO^D473H, the IC50 is 158 nM and the “Mouse D473H % Inh” value was 98.0%. In addition, on mouse SMO^WT, the IC50 is 20 nM and the “Mouse WT % Inh” value was 98.6%. On mouse SMO^W535L, the IC50 is 100 nM and the “Mouse W535L % Inh” value is given as 57.9%.

As to `O=C(Nc1ccc(-c2cc(C3CC3)no2)cc1)c1cccc(CN2CCS(=O)(=O)CC2)c1` [Example 4-6], on mouse SMO^D473H, the IC50 was 79.4 nM and the “Mouse D473H % Inh” value amounted to 99.3%. In addition, on mouse SMO^WT, the IC50 was 12.6 nM and the “Mouse WT % Inh” value is reported as 99.0%. Besides, at mouse SMO^W535L, the IC50 is 126 nM and the “Mouse W535L % Inh” value turned out to be 76.9%.

For the compound `O=C(Nc1ccc(-c2cc(C3CC3)on2)cc1)c1cccc(CN2CCS(=O)(=O)CC2)c1` [Example 4-7, N-[4-(5-Cyclopropyl-1,2-oxazol-3-yl)phenyl]-3-[(1,1-dioxo-1,4-thiazinan-4-yl)methyl]benzamide], at mouse SMO^D473H, the IC50 is 20 nM and the “Mouse D473H % Inh” value amounted to 99.3%. At mouse SMO^WT, the IC50 was 2.51 nM and the “Mouse WT % Inh” value is reported as 98.8%. Also, at mouse SMO^W535L, the IC50 was 31.6 nM and the “Mouse W535L % Inh” value worked out at 76.0%.

On to `O=C(Nc1ccc(-c2cc(C3CC3)n[nH]2)cc1)c1ccc(Cl)c(CN2CCS(=O)(=O)CC2)c1` [Example 4-20, 4-chloro-N-[4-(5-cyclopropyl-1H-pyrazol-3-yl)phenyl]-3-[(1,1-dioxo-1,4-thiazinan-4-yl)methyl]benzamide], for which, on mouse SMO^D473H, the IC50 was 31.6 nM and the “Mouse D473H % Inh” value was found to be 98.4%. At mouse SMO^WT, the IC50 was 2.51 nM and the “Mouse WT % Inh” value turned out to be 99.1%. Besides, at mouse SMO^W535L, the IC50 is 10 nM and the “Mouse W535L % Inh” value is recorded as 51.6%.

As to `O=C(Nc1ccc(-c2nc(C3CC3)n[nH]2)cc1)c1ccc(Cl)c(CN2CCS(=O)(=O)CC2)c1` [Example 2-5, 4-Chloro-N-[4-(5-cyclopropyl-1H-1,2,4-triazol-3-yl)phenyl]-3-[(1,1-dioxo-1,4-thiazinan-4-yl)methyl]benzamide], at mouse SMO^D473H, the IC50 is 158 nM and the “Mouse D473H % Inh” value is recorded as 94.4%. Also, at mouse SMO^WT, the IC50 is 15.8 nM and the “Mouse WT % Inh” value came to 95.5%. At mouse SMO^W535L, the IC50 was 100 nM and the “Mouse W535L % Inh” value turned out to be 72.2%.

As for `O=C(Nc1ccc(-c2nc(C3CCCCC3)n[nH]2)cc1)c1cccc(CN2CCS(=O)(=O)CC2)c1` [Example 3-6, N-[4-(3-Cyclohexyl-1H-1,2,4-triazol-5-yl)phenyl]-3-[(1,1-dioxo-1,4-thiazinan-4-yl)methyl]benzamide], at mouse SMO^D473H, the IC50 is 200 nM and the “Mouse D473H % Inh” value turned out to be 98.4%. Further, at mouse SMO^WT, the IC50 was 31.6 nM and the “Mouse WT % Inh” value worked out at 98.4%. At mouse SMO^W535L, the IC50 was 79.4 nM and the “Mouse W535L % Inh” value is 51.7%.

In the case of `Cl.Cn1nc(-c2ccc(NC(=O)c3cccc(CN4CCS(=O)(=O)CC4)c3)cc2)nc1C1CC1` [Example 4-27, N-[4-(5-cyclopropyl-1-methyl-1,2,4-triazol-3-yl)phenyl]-3-[(1,1-dioxo-1,4-thiazinan-4-yl)methyl]benzamide], on mouse SMO^D473H, the IC50 is 50.1 nM and the “Mouse D473H % Inh” value is 98.5%. Also, on mouse SMO^WT, the IC50 is 6.31 nM and the “Mouse WT % Inh” value is recorded as 99.5%. Also, at mouse SMO^W535L, the IC50 was 158 nM and the “Mouse W535L % Inh” value turned out to be 77.7%.

As to `O=C(Nc1ccc(-c2nc(C3CC3)n[nH]2)cc1)c1cccc(CN2CCSCC2)c1` [Example 1-1, N-[4-(3-cyclopropyl-1H-1,2,4-triazol-5-yl)phenyl]-3-(thiomorpholin-4-ylmethyl)benzamide], at mouse SMO^D473H, the IC50 was 200 nM and the “Mouse D473H % Inh” value came out at 99.3%. For the same compound, on mouse SMO^WT, the IC50 is 20 nM and the “Mouse WT % Inh” value was found to be 99.4%. Further, on mouse SMO^W535L, the IC50 was 251 nM and the “Mouse W535L % Inh” value was 66.8%.

For the compound `O=C(Nc1ccc(-c2cc(Cc3ccccc3)n[nH]2)cc1)c1cccc(CN2CCS(=O)(=O)CC2)c1` [Example 4-21, N-[4-(3-Benzyl-1H-pyrazol-5-yl)phenyl]-3-[(1,1-dioxo-1,4-thiazinan-4-yl)methyl]benzamide], at mouse SMO^D473H, the IC50 was 63.1 nM and the “Mouse D473H % Inh” value is reported as 99.4%. Besides, at mouse SMO^WT, the IC50 was 6.31 nM and the “Mouse WT % Inh” value was found to be 99.3%. Besides, at mouse SMO^W535L, the IC50 is 39.8 nM and the “Mouse W535L % Inh” value turned out to be 76.6%.

`COc1cccc(Cc2n[nH]c(-c3ccc(NC(=O)c4cccc(CN5CCS(=O)(=O)CC5)c4)cc3)n2)c1` [Example 3-22, 3-[(1,1-Dioxo-1,4-thiazinan-4-yl)methy]-N-[4-[5-[(3-methoxyphenyl)methyl]-1H-1,2,4-triazol-3-yl]phenyl]benzamide]: at mouse SMO^D473H, the IC50 is 63.1 nM and the “Mouse D473H % Inh” value stood at 98.2%. Also, at mouse SMO^WT, the IC50 is 7.94 nM and the “Mouse WT % Inh” value was 98.5%. Also, on mouse SMO^W535L, the IC50 is 31.6 nM and the “Mouse W535L % Inh” value came to 60.1%.

On to `O=C(Nc1ccc(-c2nc(-c3cccc(F)c3)n[nH]2)cc1)c1cccc(CN2CCS(=O)(=O)CC2)c1` [Example 3-10, 3-[(1,1-Dioxo-1,4-thiazinan-4-yl)methyl]-N-[4-[3-(3-fluorophenyl)-1H-1,2,4-triazol-5-yl]phenyl]benzamide], for which, on mouse SMO^D473H, the IC50 is 251 nM and the “Mouse D473H % Inh” value is recorded as 97.9%. Besides, at mouse SMO^WT, the IC50 is 12.6 nM and the “Mouse WT % Inh” value is 99.1%. Further, on mouse SMO^W535L, the IC50 was 100 nM and the “Mouse W535L % Inh” value came out at 63.9%.

Regarding `Cl.O=C(Nc1ccc(-c2nc(C3CC3)no2)cc1)c1cccc(CN2CCS(=O)(=O)CC2)c1` [Example 4-11, N-[4-(3-Cyclopropyl-1,2,4-oxadiazol-5-yl)phenyl]-3-[(1,1-dioxo-1,4-thiazinan-4-yl)methyl]benzamide], at mouse SMO^D473H, the IC50 is 158 nM and the “Mouse D473H % Inh” value was found to be 99.5%. On mouse SMO^WT, the IC50 is 50.1 nM and the “Mouse WT % Inh” value is listed as 99.7%. Besides, on mouse SMO^W535L, the IC50 is 158 nM and the “Mouse W535L % Inh” value is given as 63.8%.

For `O=C(Nc1ccc(-c2nc(Cc3cccc(F)c3)n[nH]2)cc1)c1cccc(CN2CCS(=O)(=O)CC2)c1` [Example 3-20, 3-[(1,1-Dioxo-1,4-thiazinan-4-yl)methy]-N-[4-[3-[(3-fluorophenyl)methyl]-1H-1,2,4-triazol-5-yl]phenyl]benzamide], on mouse SMO^D473H, the IC50 is 251 nM and the “Mouse D473H % Inh” value amounted to 96.8%. At mouse SMO^WT, the IC50 was 15.8 nM and the “Mouse WT % Inh” value stood at 99.0%. On mouse SMO^W535L, the IC50 is 25.1 nM and the “Mouse W535L % Inh” value is 66.1%.
